# Data reported in US9133187B2, “Serine/threonine kinase inhibitors” (ARRAY BIOPHARMA INC., priority 2011, dated 2015).
# How the values were obtained:
# [1] = molecular target: human ERK-2 (Mitogen Activated Kinase 1) (Homo sapiens (Human), UniProt P28482); experiment: ERK-2 Enzymatic Assay; type: biochemical; details: 5 nM ERK-2, 25 μM ATP, Omnia peptide S/T17; read-out: ERK Inhibition IC50
# Protocol: Compounds were tested in an enzymatic assay using human ERK-2 (Mitogen Activated Kinase 1), recombinantly expressed as an n-terminal 6-His fusion protein in E. coli and corresponding to aa 8-360. The substrate used was the fluorescent Omnia peptide S/T17 (Invitrogen of Carlsbad, Calif.; Cat. KNZ1171C). Test compounds were diluted in DMSO in 3-fold serial dilutions at 100× final concentrations. […] The assay was run at ambient temperature in a white 384-well polypropylene plate (Nunc, Inc of Naperville, Ill.; Cat. 267462) collecting data every 50 seconds for approximately 30 minutes on an Envision plate reader (PerkinElmer, Inc. of Waltham, Mass.); Excitation 340 nm/Emission 495 nm. The data collected from each well was fit to a straight line and the resulting rates were used to calculate percent of control. Percent of control was plotted against compound concentration and IC50 values were determined using a four-parameter fit.
# [2] = tested on: PMA-stimulated P90RSK(Ser380) phosphorylation in HepG2 cells; experiment: Cellular P90RSK(Ser380) Phosphorylation Assay; type: cell-based; details: Homo sapiens, 1.5 h compound incubation, PMA stimulation, pP90RSK(Ser380) normalized to GAPDH, read-out: Cell Assay IC50
# Protocol: Inhibition of PMA-stimulated P90RSK(Ser380) phosphorylation was determined by the following in vitro cellular mechanistic assay, which comprises incubating cells with a compound for 1.5 hours and quantifying fluorescent pP90RSK(Ser380) signal on fixed cells and normalizing to GAPDH signal.
# Materials and Methods: HepG2 cells were obtained from ATCC and grown in DMEM supplemented with 10% fetal bovine serum. Cells were plated in 96-well plates at 35,000 cells/well and allowed to attach overnight at 37° C./5% CO2. Diluted compounds were then added at a final concentration of 0.5% DMSO. After 1.5 hour compound incubation, cells were stimulated with the addition of PMA (phorbol 12-myristate 13-acetate) at a final concentration of 100 ng/mL; the PMA stimulation was a 30-minute incubation at 37° C./5% CO2. After the 30-minute PMA stimulation, cells were washed with PBS and fixed in 3.7% formaldehyde in PBS at room temperature for 15-20 minutes. This was followed by another wash in PBS and then permeabilization in 100% MeOH at room temperature for 10-15 minutes. Following the permeabilization incubation, cells were washed in PBS/0.05% Tween-20, followed by a block in Odyssey blocking buffer (LI-COR Biosciences) for at least 1 hour. Antibodies to phosphorylated P90RSK(Ser380) (Cell Signaling #9335, rabbit monoclonal) and GAPDH (Fitzgerald 10R-G109a, mouse monoclonal) were added to the cells and incubated overnight at 4° C. pP90RSK(Ser380) antibody was used at a 1:250 dilution; GAPDH was used at a 1:10,000 dilution. After washing with PBS/0.05% Tween-20, the cells were incubated with fluorescently-labeled secondary antibodies (Anti-rabbit-Alexa Flour680, Invitrogen Cat#A21109; Anti-mouse-IRDye800CW, Rockland Inc. Cat#610-131-121) for 1 hour. Both secondary antibodies were used at a 1:1000 dilution. Cells were then washed and analyzed for fluorescence at both wavelengths using the Odyssey Infrared Imaging System (LI-COR Biosciences). Phosphorylated P90RSK(Ser380) signal was normalized to GAPDH signal. Representative date is in TABLE III (infra).
# Sequence of human ERK-2 (Mitogen Activated Kinase 1) (P28482 8-360): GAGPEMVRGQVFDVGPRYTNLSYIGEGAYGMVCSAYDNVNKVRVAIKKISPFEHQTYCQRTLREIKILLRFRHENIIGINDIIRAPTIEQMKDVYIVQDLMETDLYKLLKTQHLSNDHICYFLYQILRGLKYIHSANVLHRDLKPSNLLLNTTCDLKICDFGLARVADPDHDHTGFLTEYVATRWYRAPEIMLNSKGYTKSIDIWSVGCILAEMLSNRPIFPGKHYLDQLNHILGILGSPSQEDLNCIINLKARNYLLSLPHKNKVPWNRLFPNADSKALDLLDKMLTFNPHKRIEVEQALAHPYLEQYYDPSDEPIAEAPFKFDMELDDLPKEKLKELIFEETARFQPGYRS
Compound,IC50 [1] [nM],IC50 [2] [nM]
"COCC(=O)OC[C@@H](NC(=O)N1CCc2cnc(NC3CCOCC3)nc2C1)c1ccc(F)c(Cl)c1 [Compound I-56, (S)-2-(3-chloro-4-fluorophenyl)-2-(2-(tetrahydro-2H-pyran-4-ylamino)-5,6,7,8-tetrahydropyrido[3,4-d]pyrimidine-7-carboxamido)ethyl 2-methoxyacetate]",5.3,66.2
"CC(C)Nc1ncc2c(n1)CN(C(=O)N[C@H](CNc1ccncn1)c1ccc(F)c(Cl)c1)CC2 [II-51, 2-Isopropylamino-5,8-dihydro-6H-pyrido[3,4-d]pyrimidine-7-carboxylic acid [(S)-1-(3-chloro-4-fluoro-phenyl)-2-(pyrimidin-4-ylamino)-ethyl]-amide]",2.4,435
"O=C(N[C@@H](c1ccc(Cl)c(F)c1)c1ccno1)N1CCc2cnc(NC3CCOCC3)nc2C1 [Compound I-12, (S)—N-((4-chloro-3-fluorophenyl)(isoxazol-5-yl)methyl)-2-(tetrahydro-2H-pyran-4-ylamino)-5,6-dihydropyrido[3,4-d]pyrimidine-7(8H)-carboxamide]",4,235
"COCCNC[C@@H](NC(=O)N1CCc2cnc(NC(C)C)nc2C1)c1ccc(F)c(Cl)c1 [II-41, 2-Isopropylamino-5,8-dihydro-6H-pyrido[3,4-d]pyrimidine-7-carboxylic acid [(S)-1-(3-chloro-4-fluoro-phenyl)-2-(2-methoxy-ethylamino)-ethyl]-amide]",15.4,1900
"C[C@@H](NC(=O)N1CCc2cnc(N[C@H]3CCC(F)(F)C3)nc2C1)c1ccc(Cl)c(Cl)c1 [II-116, 2-((S)-3,3-Difluoro-cyclopentylamino)-5,8-dihydro-6H-pyrido[3,4-d]pyrimidine-7-carboxylic acid [(R)-1-(3,4-dichloro-phenyl)-ethyl]-amide]",2.33,130
"CC(C)Nc1ncc2c(n1)CN(C(=O)N[C@@H](c1ccc(F)c(Cl)c1)[C@H](C)O)CC2 [II-40, 2-Isopropylamino-5,8-dihydro-6H-pyrido[3,4-d]pyrimidine-7-carboxylic acid [(1S,2S)-1-(3-chloro-4-fluoro-phenyl)-2-hydroxy-propyl]-amide]",3.23,87.3
"CNC(=O)C(NC(=O)N1CCc2cnc(NC(C)C)nc2C1)c1ccc(F)c(Cl)c1 (stereo not drawn) [II-26, 2-Isopropylamino-5,8-dihydro-6H-pyrido[3,4-d]pyrimidine-7-carboxylic acid [(3-chloro-4-fluoro-phenyl)-methylcarbamoyl-methyl]-amide]",86.6,12200
"O=C(N1CCc2cnc(NC3CCOCC3)nc2C1)N1CCCC1c1ccccn1 (stereo not drawn) [II-288, (2-Pyridin-2-yl-pyrrolidin-1-yl)-[2-(tetrahydro-pyran-4-ylamino)-5,8-dihydro-6H-pyrido[3,4-d]pyrimidin-7-yl]-methanone]",62.7,9500
"CC(=O)N1CCC[C@H]1[C@@H](NC(=O)N1CCc2cnc(NC(C)C)nc2C1)c1ccc(Cl)c(F)c1 [Compound I-87, N—((S)—((S)-1-acetylpyrrolidin-2-yl)(4-chloro-3-fluorophenyl)methyl)-2-(isopropylamino)-5,6-dihydropyrido[3,4-d]pyrimidine-7(8H)-carboxamide]",195,5100
"O=C(N1CCc2cnc(NC3CCOCC3)nc2C1)N1CCC[C@H]1c1ccccc1 [Compound I-130, (S)-(2-phenylpyrrolidin-1-yl)(2-(tetrahydro-2H-pyran-4-ylamino)-5,6-dihydropyrido[3,4-d]pyrimidin-7(8H)-yl)methanone]",123,10000
"CC(C)Nc1ncc2c(n1)CN(C(=O)N[C@H](CNc1ncccn1)c1ccc(F)c(Cl)c1)CC2 [II-50, 2-Isopropylamino-5,8-dihydro-6H-pyrido[3,4-d]pyrimidine-7-carboxylic acid [(S)-1-(3-chloro-4-fluoro-phenyl)-2-(pyrimidin-2-ylamino)-ethyl]-amide]",4.43,1000
"Cn1cc(C(NC(=O)N2CCc3cnc(NC4CCOCC4)nc3C2)c2ccc(Cl)c(F)c2)cn1 (stereo not drawn) [Compound I-5, N-((4-chloro-3-fluorophenyl)(1-methyl-1H-pyrazol-4-yl)methyl)-2-(tetrahydro-2H-pyran-4-ylamino)-5,6-dihydropyrido[3,4-d]pyrimidine-7(8H)-carboxamide]",1.4,47.3
"C[C@@H](NC(=O)N1CCc2cnc(NC3CCN(C)CC3)nc2C1)c1ccc(Cl)c(Cl)c1 [Compound I-83, (R)—N-(1-(3,4-dichlorophenyl)ethyl)-2-(1-methylpiperidin-4-ylamino)-5,6-dihydropyrido[3,4-d]pyrimidine-7(8H)-carboxamide]",113,2500
"C[C@@H](CO)Nc1ncc2c(n1)CN(C(=O)N[C@H](C)c1ccc(Cl)c(F)c1)CC2 [Compound I-21, N—((R)-1-(4-chloro-3-fluorophenyl)ethyl)-2-((S)-1-hydroxypropan-2-ylamino)-5,6-dihydropyrido[3,4-d]pyrimidine-7(8H)-carboxamide]",1.6,55.2
"C[C@@H](CO)Nc1ncc2c(n1)CN(C(=O)NCc1nc3ccccc3o1)CC2 [II-151, 2-((S)-2-Hydroxy-1-methyl-ethylamino)-5,8-dihydro-6H-pyrido[3,4-d]pyrimidine-7-carboxylic acid (benzooxazol-2-ylmethyl)-amide]",52.8,10000
"CNC[C@@H](CC(=O)N1CCc2cnc(NC(C)C)nc2C1)c1ccc(Cl)c(F)c1 [Compound I-17, (S)-3-(4-Chloro-3-fluoro-phenyl)-1-(2-isopropylamino-5,8-dihydro-6H-pyrido[3,4-d]pyrimidin-7-yl)-4-methylamino-butan-1-one]",3.2,281
"CC1(C)CC[C@@H]([C@@H](NC(=O)N2CCc3cnc(NC4CCOCC4)nc3C2)c2ccc(C(F)(F)F)cc2F)N1 [Compound I-86, N—((S)—((S)-5,5-dimethylpyrrolidin-2-yl)(2-fluoro-4-(trifluoromethyl)phenyl)methyl)-2-(tetrahydro-2H-pyran-4-ylamino)-5,6-dihydropyrido[3,4-d]pyrimidine-7(8H)-carboxamide]",148,3600
"Cc1noc(C)c1Nc1ncc2c(n1)CN(C(=O)N[C@H](CO)c1ccc(F)c(Cl)c1)CC2 [II-34, 2-(3,5-Dimethyl-isoxazol-4-ylamino)-5,8-dihydro-6H-pyrido[3,4-d]pyrimidine-7-carboxylic acid [(S)-1-(3-chloro-4-fluoro-phenyl)-2-hydroxy-ethyl]-amide]",25.9,13200
"CC(NC(=O)N1CCc2cnc(NC3CCOCC3)nc2C1)c1ccc2cc[nH]c2c1 (stereo not drawn) [Compound I-107, N-(1-(1H-indol-6-yl)ethyl)-2-(tetrahydro-2H-pyran-4-ylamino)-5,6-dihydropyrido[3,4-d]pyrimidine-7(8H)-carboxamide]",2.7,30
"CC(C)Nc1ncc2c(n1)CN(C(=O)N[C@@H](c1ccc(Cl)c(Cl)c1)[C@H]1CCCN1C)CC2 [Compound I-61, N—((S)-(3,4-dichlorophenyl)((R)-1-methylpyrrolidin-2-yl)methyl)-2-(isopropylamino)-5,6-dihydropyrido[3,4-d]pyrimidine-7(8H)-carboxamide]",2.9,93
"CCCC(NC(=O)N1CCc2cnc(N[C@@H](C)CO)nc2C1)c1ccc(OC)c(F)c1 (stereo partly drawn) [II-415, 2-(2-Hydroxy-1-methyl-ethylamino)-5,8-dihydro-6H-pyrido[3,4-d]pyrimidine-7-carboxylic acid [1-(3-fluoro-4-methoxy-phenyl)-butyl]-amide]",2.3,39.5
